Read-outs that look alike come from different tables or passages of the source.
Assays:
[1] = system: ER-positive human breast cancer cells MCF7; assay: MTT antiproliferative assay, MCF7 cells; type: cell-based; settings: for potency relative to parent natural tocotrienol / antiproliferative activity (in words): MCF7; for potency relative to parent natural tocotrienol: 4 and 10 versus Compound 1, 8 versus Compound 2
Description: (§1) For each of the assays performed the compounds were dissolved in aqueous culture media by binding the compounds with bovine serum albumin (BSA).
(§2) An amount of each compound appropriate for the desired final compound concentration was placed in a 1.5 mL screw top glass vial and dissolved in 100 μL of 100% ethanol. Once dissolved, this ethanol/compound solution was added to a small volume of sterile 10% BSA in water and incubated overnight at 37° C. […] Ethanol was added to all treatment media such that the final ethanol concentration was the same in all treatment groups within a given experiment and was always less than 0.1%. Although the examples provided have been described in conjunction with specified amounts of ethanol and other compounds it should be understood that the invention is applicable to embodiments not having those limited concentration.
(§3) The cell growth of MCF7 (Example 24) and MDA-MB-231 (Example 25) cell lines was measured using the MTT assay procedures described above and an MTT assay kit (TACS™, Trevogen®, Inc., Gaithersburg, Md.). After passing the cells for 3-4 times, growing cells were incubated in a 96-well plate at a density of 8×10^3 cells per well, and allowed to attach for 24 hours. Complete growth medium was then replaced with 100 μL of RPMI serum free medium (GIBCO-Invitrogen, NY) containing various doses (20, 10, 5, 2 μM) of the tested compound and the culture continued at 37° C. under 5% CO2. After 96 hours, the incubated cells were treated with MTT solution (10 μL/well) at 37° C. for 4 hours. The color reaction was stopped by the addition of solubilization/stop solution (100 μL/well). The cells continued to be incubated at 37° C. to completely dissolve the formazan product. Absorbance of the samples was determined at 570 nm with an ELISA plate reader (BioTek, VT). Absorbance readings were converted to estimated cell numbers based on a standard curve prepared by plating various concentration of cells, as determined by hemocytometer, and measuring the absorbance of those cells at the start of each experiment. The IC50 value of each compound was calculated using nonlinear regression (curve fit) of log concentration versus the number of cells/well implemented using GraphPad Prism 5.0 program. The procedure was identical for both human breast cancer cell lines MCF7 and MDA-MB-231.

[2] = system: ER-negative human breast cancer cells MDA-MB-231; assay: MTT antiproliferative assay, MDA-MB-231 cells; type: cell-based; settings: for antiproliferative activity (in words): MDA-MB-231
Description: as §1, §2, §3

[3] = system: highly metastatic breast cancer cell line MDA-MB-231; assay: BME Cell Invasion Assay (Boyden chamber, calcein-AM); type: cell-based, human; settings: for anti-invasive activity (in words): MDA-MB-231, 5 μM
Description: Anti-Invasion Assays were performed to measure the anti-invasive properties of Compounds 1-21 using a 96 well basement membrane extract “BME” Cell Invasion Assay (Cultrex®, Trevogen, Catalog# 3455-096-K) with the highly metastatic breast cancer cell line MDA-MB-231. This assay employs a simplified Boyden Chamber design with a polyethylene terephthalate membrane (8 μm). Detection of cell invasion is quantified using calcein-AM. Cells internalize calcein-AM and intracellular esterases cleave the acetomethylester moiety to generate free calcein. Free calcein fluoresces brightly, and this fluorescence may be used to quantify the number of cells that have invaded across BME. (See Tamilarasan and Borghesani, referenced above)
About […] of basement membrane extract (BME, 1×) coat was added per well. After overnight incubation at 37° C. in a 5% CO2 incubator, 50,000/50 μL of MDA-MB-231 cells in serum free RPMI medium were added to the top chamber of each well, which contained the tested compound at a treatment concentration of 5 μM. About 150 μL of RPMI medium was added to the lower chamber, which contained 10% fetal bovine serum, penicillin/streptomycin, and fibronectin (1 μL/mL) and N-formyl-met-leu-phe (10 nM) as chemoattractants. Cells were allowed to migrate to the lower chamber at 37° C. in a CO2 incubator. After 24 h, the top and bottom chambers were aspirated and washed with a washing buffer solution. About 100 μL of cell dissociation solution/Calcein-AM solution was added to the bottom chamber and incubated for 1 hour at 37° C. in a CO2 incubator. The cells internalized calcein-AM, and the intracellular esterases cleaved the acetomethylester (AM) moiety to generate free calcein. Fluorescence of the samples was determined at 485 nm excitation; 520 nm emissions were measured using a plate reader (BioTek, VT). The numbers of cells that invaded through the BME coat were calculated using a standard curve.
Differences among the various treatment groups were determined by analysis of variance (ANOVA) followed by Dunnett's t-test. Differences were considered to be statistically significant at a value of <0.05, as compared to vehicle treated controls.

[4] = 96 hours, serum free medium, calculated by nonlinear regression, read-out: MCF7 IC50
[5] = 96 hours, serum free medium, calculated by nonlinear regression, read-out: MDA-MB-231 IC50
[6] = Homo sapiens, MCF7, 96 h, read-out: MCF7 IC50 μM
[7] = Homo sapiens, MDA-MB-231, 96 h, read-out: MDA-MB-231 IC50 μM

IC50 [1, 4] | IC50 [2, 5] | Structure (SMILES) | IC50 [1, 6] | IC50 [2, 7] | other results
> 20 µM | > 10 µM | CC(C)=CCC/C(C)=C/CC/C(C)=C/CC[C@]1(C)CCc2c(C)c(O)c(C)c(C)c2O1 [Compound 1, α-tocotrienol, reference compound] |  |  | 
4.5 µM | > 10 µM | CC(C)=CCC/C(C)=C/CC/C(C)=C/CCC1(C)CCc2c(C)c(OC(=O)NS(=O)(=O)c3ccccc3)c(C)c(C)c2O1 (centres unmarked) [Compound 4, 2,5,7,8-tetramethyl-2-((3E,7E)-4,8,12-trimethyltrideca-3,7,11-trienyl)chroman-6-ylphenylsulfonylcarbamate] |  |  | potency relative to parent natural tocotrienol [1]: 8 fold
> 10 µM | > 10 µM | CC(C)=CCC/C(C)=C/CC/C(C)=C/CCC1(C)CCc2cc(OC(=O)NS(=O)(=O)c3ccccc3)c(C)c(C)c2O1 (centres unmarked) [Compound 5, 2,7,8-trimethyl-2-((3E,7E)-4,8,12-trimethyltrideca-3,7,11-trienyl)chroman-6-ylphenylsulfonylcarbamate] |  |  | 
6.1 µM | > 10 µM | CC(C)=CCC/C(C)=C/CC/C(C)=C/CCC1(C)CCc2cc(OC(=O)NS(=O)(=O)c3ccccc3)cc(C)c2O1 (centres unmarked) [Compound 6, 2,8-dimethyl-2-((3E,7E)-4,8,12-trimethyltrideca-3,7,11-trienyl)chroman-6-ylphenylsulfonylcarbamate] |  |  | antiproliferative activity (in words) [1]: activities greater than the natural tocotrienols from which they were derived
 |  | CC(C)=CCC/C(C)=C/CC/C(C)=C/CC[C@]1(C)CCc2c(C)c(OC(=O)NS(=O)(=O)c3ccc(C)cc3)c(C)c(C)c2O1 [Compound 7, (R)-2,5,7,8-tetramethyl-2-((3E,7E)-4,8,12-trimethyltrideca-3,7,11-trienyl)chroman-6-yl tosylcarbamate] | 6.1 µM | > 10 µM | antiproliferative activity (in words) [1]: activities greater than the natural tocotrienols from which they were derived
 |  | CC(C)=CCC/C(C)=C/CC/C(C)=C/CC[C@]1(C)CCc2c(C)c(OC(=O)NS(=O)(=O)c3ccc(Cl)cc3)c(C)c(C)c2O1 [Compound 10, (R)-2,5,7,8-tetramethyl-2-((3E,7E)-4,8,12-trimethyltrideca-3,7,11-trienyl)chroman-6-yl 4-chlorophenylsulfonylcarbamate] | 2.4 µM | > 10 µM | potency relative to parent natural tocotrienol [1]: 8 fold
 |  | CC(C)=CCC/C(C)=C/CC/C(C)=C/CC[C@]1(C)CCc2cc(OC(=O)NS(=O)(=O)c3ccc(Cl)cc3)c(C)c(C)c2O1 [Compound 11, (R)-2,7,8-trimethyl-2-((3E,7E)-4,8,12-trimethyltrideca-3,7,11-trienyl)chroman-6-yl 4-chlorophenylsulfonylcarbamate] | > 10 µM | > 10 µM | 
 |  | CC(C)=CCC/C(C)=C/CC/C(C)=C/CC[C@]1(C)CCc2cc(OC(=O)NS(=O)(=O)c3ccc(Cl)cc3)cc(C)c2O1 [Compound 12, (R)-2,8-dimethyl-2-((3E,7E)-4,8,12-trimethyltrideca-3,7,11-trienyl)chroman-6-yl 4-chlorophenylsulfonylcarbamate] | > 10 µM | > 10 µM | 
 |  | CC(C)=CCC/C(C)=C/CC/C(C)=C/CC[C@]1(C)CCc2c(C)c(OC(=O)Nc3ccccc3)c(C)c(C)c2O1 [Compound 13, (R)-2,5,7,8-tetramethyl-2-((3E,7E)-4,8,12-trimethyltrideca-3,7,11-trienyl)chroman-6-yl phenylcarbamate] | > 20 µM | > 10 µM | antiproliferative activity (in words) [2]: improved activities; anti-invasive activity (in words) [3]: more active than their natural tocotrienol parent compounds
 |  | CC(C)=CCC/C(C)=C/CC/C(C)=C/CC[C@]1(C)CCc2cc(OC(=O)Nc3ccccc3)c(C)c(C)c2O1 [Compound 14, (R)-2,7,8-trimethyl-2-((3E,7E)-4,8,12-trimethyltrideca-3,7,11-trienyl)chroman-6-yl phenylcarbamate] | > 10 µM | > 10 µM | 
 |  | CC(C)=CCC/C(C)=C/CC/C(C)=C/CC[C@]1(C)CCc2cc(OC(=O)Nc3ccccc3)cc(C)c2O1 [Compound 15, (R)-2,8-dimethyl-2-((3E,7E)-4,8,12-trimethyltrideca-3,7,11-trienyl)chroman-6-yl phenylcarbamate] | > 10 µM | > 10 µM | 
 |  | CC(C)=CCC/C(C)=C/CC/C(C)=C/CC[C@]1(C)CCc2c(C)c(OC(=O)NCc3ccccc3)c(C)c(C)c2O1 [Compound 16, (R)-2,5,7,8-tetramethyl-2-((3E,7E)-4,8,12-trimethyltrideca-3,7,11-trienyl)chroman-6-yl benzylcarbamate] | > 20 µM | 7.2 µM | antiproliferative activity (in words) [2]: improved activities; MDA-MB-231 cells invasion ([3]; 5 μM, 24 h): 8%; anti-invasive activity (in words) [3]: more active than their natural tocotrienol parent compounds
 |  | CC(C)=CCC/C(C)=C/CC/C(C)=C/CC[C@]1(C)CCc2cc(OC(=O)NCc3ccccc3)c(C)c(C)c2O1 [Compound 17, (R)-2,7,8-trimethyl-2-((3E,7E)-4,8,12-trimethyltrideca-3,7,11-trienyl)chroman-6-yl benzylcarbamate] | > 10 µM | > 10 µM | antiproliferative activity (in words) [2]: improved activities; anti-invasive activity (in words) [3]: more active than their natural tocotrienol parent compounds
 |  | CC(C)=CCC/C(C)=C/CC/C(C)=C/CC[C@]1(C)CCc2cc(OC(=O)NCc3ccccc3)cc(C)c2O1 [Compound 18, (R)-2,8-dimethyl-2-((3E,7E) 4,8,12-trimethyltrideca-3,7,11-trienyl)chroman-6-yl benzylcarbamate] | > 10 µM | > 10 µM | 
 |  | CC(C)=CCC/C(C)=C/CC/C(C)=C/CC[C@]1(C)CCc2c(C)c(OC(=O)NC(=O)c3ccccc3)c(C)c(C)c2O1 [Compound 19, (R)-2,5,7,8-tetramethyl-2-((3E,7E)-4,8,12-trimethyltrideca-3,7,11-trienyl)chroman-6-yl benzoylcarbamate] | > 20 µM | > 10 µM | 
 |  | CC(C)=CCC/C(C)=C/CC/C(C)=C/CC[C@]1(C)CCc2cc(OC(=O)NC(=O)c3ccccc3)c(C)c(C)c2O1 [Compound 20, (R)-2,7,8-trimethyl-2-((3E,7E)-4,8,12-trimethyltrideca-3,7,11-trienyl)chroman-6-yl benzoylcarbamate] | > 10 µM |  | 
 |  | CC(C)=CCC/C(C)=C/CC/C(C)=C/CC[C@]1(C)CCc2cc(OC(=O)NC(=O)c3ccccc3)cc(C)c2O1 [Compound 21, (R)-2,8-dimethyl-2-((3E,7E)-4,8,12-trimethyltrideca-3,7,11-trienyl)chroman-6-yl benzoylcarbamate] | 5.6 µM |  | 

Structure (SMILES) | IC50 [1, 4] | IC50 [2, 5] | IC50 [1, 6] | IC50 [2, 7] | other results
CC(C)=CCC/C(C)=C/CC/C(C)=C/CC[C@]1(C)CCc2cc(O)c(C)c(C)c2O1 [Compound 2, γ-tocotrienol, reference compound] | 11.4 µM | > 10 µM |  |  | 
CC(C)=CCC/C(C)=C/CC/C(C)=C/CC[C@]1(C)CCc2cc(O)cc(C)c2O1 [Compound 3, δ-tocotrienol, reference compound] | 15.5 µM | > 10 µM |  |  | 
